According to ChEMBL document CHEMBL1201862, “PubChem BioAssay data set” (2004):
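Test compounds were applied to cells in 96-well plates for 48 hours at 5 doses. At the GI50, growth is halved.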 Active and inactive are the calls of the source. Cut-off read from the data, not from the text of the source: active = GI50 up to about 1.1 µM and inactive = higher.

Tests used:
Experiment in all cases: DTP human tumour cell line panel, 48 h
NCI-H23 = tested on: NCI-H23
IGROV-1 = tested on: IGROV-1
U-251 = tested on: U-251
ACHN = tested on: ACHN
RXF 393 = tested on: RXF 393
TK-10 = tested on: TK-10
HT-29 = tested on: HT-29
UACC-62 = tested on: UACC-62
CCRF-CEM = tested on: CCRF-CEM
PC-3 = tested on: PC-3
NCI/ADR-RES = tested on: NCI/ADR-RES
NCI-H522 = tested on: NCI-H522
SK-MEL-5 = tested on: SK-MEL-5
SF-539 = tested on: SF-539
LOX IMVI = tested on: LOX IMVI
HOP-92 = tested on: HOP-92
OVCAR-4 = tested on: OVCAR-4
SNB-75 = tested on: SNB-75
DU-145 = tested on: DU-145
RPMI-8226 = tested on: RPMI-8226
HCT-116 = tested on: HCT-116
SF-295 = tested on: SF-295
MCF7 = tested on: MCF7
SK-OV-3 = tested on: SK-OV-3
MDA-N = tested on: MDA-N
Malme-3M = tested on: Malme-3M
NCI-H460 = tested on: NCI-H460
UO-31 = tested on: UO-31
A549 = tested on: A549
SF-268 = tested on: SF-268
A498 = tested on: A498
MDA-MB-435 = tested on: MDA-MB-435
M14 = tested on: M14
CAKI-1 = tested on: CAKI-1
SW-620 = tested on: SW-620
K562 = tested on: K562
SR = tested on: SR
786-0 = tested on: 786-0
SK-MEL-28 = tested on: SK-MEL-28
MOLT-4 = tested on: MOLT-4
OVCAR-3 = tested on: OVCAR-3
UACC-257 = tested on: UACC-257
SNB-19 = tested on: SNB-19
COLO 205 = tested on: COLO 205
T47D = tested on: T47D
KM12 = tested on: KM12
MDA-MB-231 = tested on: MDA-MB-231
SK-MEL-2 = tested on: SK-MEL-2
OVCAR-5 = tested on: OVCAR-5
HOP-62 = tested on: HOP-62
HL-60 = tested on: HL-60
BT-549 = tested on: BT-549
SN12C = tested on: SN12C
OVCAR-8 = tested on: OVCAR-8
HCT-15 = tested on: HCT-15
Hs-578T = tested on: Hs-578T
EKVX = tested on: EKVX
HCC 2998 = tested on: HCC 2998
NCI-H226 = tested on: NCI-H226

NCCc1nc(-c2nc(C(=O)O)cs2)cs1
GI50 (NCI-H23): > 100 µM (inactive) | GI50 (IGROV-1): > 100 µM (inactive) | GI50 (U-251): > 100 µM (inactive) | GI50 (ACHN): > 100 µM (inactive) | GI50 (RXF 393): > 100 µM (inactive) | GI50 (TK-10): > 100 µM (inactive) | GI50 (HT-29): > 100 µM (inactive) | GI50 (UACC-62): > 100 µM (inactive) | GI50 (CCRF-CEM): > 100 µM (inactive) | GI50 (PC-3): > 100 µM (inactive) | GI50 (NCI/ADR-RES): > 100 µM (inactive) | GI50 (NCI-H522): > 100 µM (inactive) | GI50 (SK-MEL-5): > 100 µM (inactive) | GI50 (SF-539): > 100 µM (inactive) | GI50 (LOX IMVI): > 100 µM (inactive) | GI50 (HOP-92): > 100 µM (inactive) | GI50 (OVCAR-4): > 100 µM (inactive) | GI50 (SNB-75): > 100 µM (inactive) | GI50 (DU-145): > 100 µM (inactive) | GI50 (RPMI-8226): > 100 µM (inactive) | GI50 (HCT-116): > 100 µM (inactive) | GI50 (SF-295): > 100 µM (inactive) | GI50 (MCF7): > 100 µM (inactive) | GI50 (SK-OV-3): > 100 µM (inactive) | GI50 (MDA-N): > 100 µM (inactive) | GI50 (Malme-3M): > 100 µM (inactive) | GI50 (NCI-H460): > 100 µM (inactive) | GI50 (UO-31): > 100 µM (inactive) | GI50 (A549): > 100 µM (inactive) | GI50 (SF-268): > 100 µM (inactive) | GI50 (A498): > 100 µM (inactive) | GI50 (MDA-MB-435): > 100 µM (inactive) | GI50 (M14): > 100 µM (inactive) | GI50 (CAKI-1): > 100 µM (inactive) | GI50 (SW-620): > 100 µM (inactive) | GI50 (K562): > 100 µM (inactive) | GI50 (SR): > 100 µM (inactive) | GI50 (786-0): > 100 µM (inactive) | GI50 (SK-MEL-28): > 100 µM (inactive) | GI50 (MOLT-4): > 100 µM (inactive) | GI50 (OVCAR-3): > 100 µM (inactive) | GI50 (UACC-257): > 100 µM (inactive) | GI50 (SNB-19): > 100 µM (inactive) | GI50 (COLO 205): > 100 µM (inactive) | GI50 (T47D): > 100 µM (inactive) | GI50 (KM12): > 100 µM (inactive) | GI50 (MDA-MB-231): > 100 µM (inactive) | GI50 (SK-MEL-2): > 100 µM (inactive) | GI50 (OVCAR-5): > 100 µM (inactive) | GI50 (HOP-62): > 100 µM (inactive) | GI50 (HL-60): > 100 µM (inactive) | GI50 (BT-549): > 100 µM (inactive) | GI50 (SN12C): > 100 µM (inactive) | GI50 (OVCAR-8): > 100 µM (inactive) | GI50 (HCT-15): > 100 µM | GI50 (Hs-578T): > 100 µM (inactive) | GI50 (EKVX): > 100 µM (inactive)

O=C(CC(c1ccccc1)C1C(=O)NC(=S)NC1=O)c1ccc([N+](=O)[O-])cc1 (centres undefined)
GI50 (NCI-H23): > 100 µM (inactive) | GI50 (IGROV-1): > 100 µM (inactive) | GI50 (U-251): > 100 µM (inactive) | GI50 (ACHN): > 100 µM (inactive) | GI50 (TK-10): > 100 µM (inactive) | GI50 (HT-29): > 100 µM (inactive) | GI50 (UACC-62): > 100 µM (inactive) | GI50 (HCC 2998): 31.6 µM (inactive) | GI50 (CCRF-CEM): > 100 µM (inactive) | GI50 (PC-3): > 100 µM (inactive) | GI50 (NCI/ADR-RES): > 100 µM (inactive) | GI50 (NCI-H522): > 100 µM (inactive) | GI50 (SK-MEL-5): > 100 µM (inactive) | GI50 (SF-539): > 100 µM (inactive) | GI50 (LOX IMVI): 63.4 µM (inactive) | GI50 (HOP-92): > 100 µM (inactive) | GI50 (OVCAR-4): > 100 µM (inactive) | GI50 (SNB-75): > 100 µM (inactive) | GI50 (DU-145): > 100 µM (inactive) | GI50 (RPMI-8226): 45.9 µM (inactive) | GI50 (HCT-116): 76.6 µM (inactive) | GI50 (SF-295): > 100 µM (inactive) | GI50 (MCF7): 17.7 µM (inactive) | GI50 (SK-OV-3): > 100 µM (inactive) | GI50 (MDA-N): > 100 µM (inactive) | GI50 (Malme-3M): > 100 µM (inactive) | GI50 (NCI-H460): > 100 µM (inactive) | GI50 (UO-31): > 100 µM (inactive) | GI50 (A549): > 100 µM (inactive) | GI50 (SF-268): 72.8 µM (inactive) | GI50 (A498): > 100 µM (inactive) | GI50 (MDA-MB-435): > 100 µM (inactive) | GI50 (M14): > 100 µM (inactive) | GI50 (CAKI-1): 22.4 µM (inactive) | GI50 (SW-620): > 100 µM (inactive) | GI50 (K562): > 100 µM (inactive) | GI50 (SR): 41.1 µM (inactive) | GI50 (786-0): > 100 µM (inactive) | GI50 (SK-MEL-28): > 100 µM (inactive) | GI50 (MOLT-4): > 100 µM (inactive) | GI50 (OVCAR-3): > 100 µM (inactive) | GI50 (UACC-257): > 100 µM (inactive) | GI50 (SNB-19): > 100 µM (inactive) | GI50 (COLO 205): > 100 µM (inactive) | GI50 (T47D): 17.8 µM (inactive) | GI50 (KM12): 65.2 µM (inactive) | GI50 (MDA-MB-231): > 100 µM (inactive) | GI50 (SK-MEL-2): > 100 µM (inactive) | GI50 (OVCAR-5): > 100 µM (inactive) | GI50 (HOP-62): > 100 µM (inactive) | GI50 (HL-60): > 100 µM (inactive) | GI50 (BT-549): > 100 µM (inactive) | GI50 (SN12C): > 100 µM (inactive) | GI50 (OVCAR-8): > 100 µM (inactive) | GI50 (NCI-H226): > 100 µM (inactive) | GI50 (HCT-15): > 100 µM | GI50 (Hs-578T): > 100 µM (inactive) | GI50 (EKVX): 31.8 µM (inactive)

O=C(O)Cc1cccc2c(=O)c3cccc([N+](=O)[O-])c3[nH]c12
GI50 (NCI-H23): > 100 µM (inactive) | GI50 (IGROV-1): > 100 µM (inactive) | GI50 (U-251): 38.9 µM (inactive) | GI50 (ACHN): > 100 µM (inactive) | GI50 (TK-10): > 100 µM (inactive) | GI50 (HT-29): > 100 µM (inactive) | GI50 (UACC-62): 25 µM (inactive) | GI50 (HCC 2998): 60.3 µM (inactive) | GI50 (CCRF-CEM): > 100 µM (inactive) | GI50 (PC-3): > 100 µM (inactive) | GI50 (NCI/ADR-RES): > 100 µM (inactive) | GI50 (NCI-H522): 63.2 µM (inactive) | GI50 (SK-MEL-5): 44.7 µM (inactive) | GI50 (SF-539): 29.7 µM (inactive) | GI50 (LOX IMVI): 48.2 µM (inactive) | GI50 (HOP-92): > 100 µM (inactive) | GI50 (OVCAR-4): 38.1 µM (inactive) | GI50 (SNB-75): 24.2 µM (inactive) | GI50 (DU-145): 58.5 µM (inactive) | GI50 (RPMI-8226): 12.9 µM (inactive) | GI50 (HCT-116): > 100 µM (inactive) | GI50 (SF-295): > 100 µM (inactive) | GI50 (MCF7): 80.9 µM (inactive) | GI50 (SK-OV-3): > 100 µM (inactive) | GI50 (MDA-N): > 100 µM (inactive) | GI50 (Malme-3M): 29.4 µM (inactive) | GI50 (NCI-H460): > 100 µM (inactive) | GI50 (UO-31): > 100 µM (inactive) | GI50 (A549): > 100 µM (inactive) | GI50 (A498): > 100 µM (inactive) | GI50 (MDA-MB-435): > 100 µM (inactive) | GI50 (M14): 27.8 µM (inactive) | GI50 (CAKI-1): > 100 µM (inactive) | GI50 (SW-620): > 100 µM (inactive) | GI50 (K562): > 100 µM (inactive) | GI50 (SR): 21.4 µM (inactive) | GI50 (786-0): > 100 µM (inactive) | GI50 (MOLT-4): > 100 µM (inactive) | GI50 (OVCAR-3): 99.8 µM (inactive) | GI50 (UACC-257): > 100 µM (inactive) | GI50 (SNB-19): 43.3 µM (inactive) | GI50 (COLO 205): 20.7 µM (inactive) | GI50 (T47D): > 100 µM (inactive) | GI50 (KM12): 85.1 µM (inactive) | GI50 (MDA-MB-231): > 100 µM (inactive) | GI50 (SK-MEL-2): 72.1 µM (inactive) | GI50 (OVCAR-5): 36.5 µM (inactive) | GI50 (HOP-62): 31.4 µM (inactive) | GI50 (HL-60): > 100 µM (inactive) | GI50 (BT-549): 27 µM (inactive) | GI50 (SN12C): 99.1 µM (inactive) | GI50 (OVCAR-8): > 100 µM (inactive) | GI50 (HCT-15): 71.8 µM | GI50 (Hs-578T): 36 µM (inactive)
